Results published in PubChem BioAssay (NCI).
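Protocol summary: plate cells (96-well), add compound at 5 concentrations, incubate 48 h, interpolate endpoints linearly. The concentration for full growth arrest is given as TGI.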

How the values were obtained:
Assay in all cases: NCI tumour cell line growth inhibition, 48 h
786-0 renal = test system: 786-0 renal
A498 renal = test system: A498 renal
A549 NSCLC = test system: A549 NSCLC
ACHN renal = test system: ACHN renal
CAKI-1 renal = test system: CAKI-1 renal
CCRF-CEM leukemia = test system: CCRF-CEM leukemia
COLO 205 colon = test system: COLO 205 colon
DLD-1 colon = test system: DLD-1 colon
DMS 114 small cell lung = test system: DMS 114 small cell lung
EKVX NSCLC = test system: EKVX NSCLC
HCC-2998 colon = test system: HCC-2998 colon
HCT-116 colon = test system: HCT-116 colon
HCT-15 colon = test system: HCT-15 colon
HL-60(TB) leukemia = test system: HL-60(TB) leukemia
HOP-62 NSCLC = test system: HOP-62 NSCLC
HOP-92 NSCLC = test system: HOP-92 NSCLC
HT29 colon = test system: HT29 colon
IGROV1 ovarian = test system: IGROV1 ovarian
K-562 leukemia = test system: K-562 leukemia
KM12 colon = test system: KM12 colon
KM20L2 colon = test system: KM20L2 colon
LOX IMVI melanoma = test system: LOX IMVI melanoma
LXFL 529 NSCLC = test system: LXFL 529 NSCLC
M14 melanoma = test system: M14 melanoma
M19-MEL melanoma = test system: M19-MEL melanoma
MALME-3M melanoma = test system: MALME-3M melanoma
NCI-H23 lung = test system: NCI-H23 lung
NCI-H460 lung = test system: NCI-H460 lung
NCI-H522 lung = test system: NCI-H522 lung
OVCAR-3 ovarian = test system: OVCAR-3 ovarian
OVCAR-4 ovarian = test system: OVCAR-4 ovarian
OVCAR-5 ovarian = test system: OVCAR-5 ovarian
OVCAR-8 ovarian = test system: OVCAR-8 ovarian
RPMI-8226 leukemia = test system: RPMI-8226 leukemia
SF-268 CNS = test system: SF-268 CNS
SF-295 CNS = test system: SF-295 CNS
SF-539 CNS = test system: SF-539 CNS
SK-MEL-2 melanoma = test system: SK-MEL-2 melanoma
SK-MEL-28 melanoma = test system: SK-MEL-28 melanoma
SK-MEL-5 melanoma = test system: SK-MEL-5 melanoma
SK-OV-3 ovarian = test system: SK-OV-3 ovarian
SN12C renal = test system: SN12C renal
SNB-19 CNS = test system: SNB-19 CNS
SNB-78 CNS = test system: SNB-78 CNS
SW-620 colon = test system: SW-620 colon
TK-10 renal = test system: TK-10 renal
U251 CNS = test system: U251 CNS
UACC-257 melanoma = test system: UACC-257 melanoma
UACC-62 melanoma = test system: UACC-62 melanoma
UO-31 renal = test system: UO-31 renal
XF 498 CNS = test system: XF 498 CNS
DMS 273 small cell lung = test system: DMS 273 small cell lung
HOP-18 NSCLC = test system: HOP-18 NSCLC
MOLT-4 leukemia = test system: MOLT-4 leukemia
NCI-H226 lung = test system: NCI-H226 lung
RXF 393 renal = test system: RXF 393 renal
SNB-75 CNS = test system: SNB-75 CNS
SR leukemia = test system: SR leukemia

Measured: TGI

COc1ccc(/C=C2/C(=O)N(C(=O)c3ccc(Cl)cc3)N=C2C)cc1OC
> 100 µM: 786-0 renal | A498 renal | A549 NSCLC | ACHN renal | CAKI-1 renal | CCRF-CEM leukemia | COLO 205 colon | DLD-1 colon | DMS 114 small cell lung | EKVX NSCLC | HCC-2998 colon | HCT-116 colon | HCT-15 colon | HL-60(TB) leukemia | HOP-62 NSCLC | HOP-92 NSCLC | HT29 colon | IGROV1 ovarian | K-562 leukemia | KM12 colon | KM20L2 colon | LOX IMVI melanoma | LXFL 529 NSCLC | M14 melanoma | M19-MEL melanoma | MALME-3M melanoma | NCI-H23 lung | NCI-H460 lung | NCI-H522 lung | OVCAR-3 ovarian | OVCAR-4 ovarian | OVCAR-5 ovarian | OVCAR-8 ovarian | RPMI-8226 leukemia | SF-268 CNS | SF-295 CNS | SF-539 CNS | SK-MEL-2 melanoma | SK-MEL-28 melanoma | SK-MEL-5 melanoma | SK-OV-3 ovarian | SN12C renal | SNB-19 CNS | SNB-78 CNS | SW-620 colon | TK-10 renal | U251 CNS | UACC-257 melanoma | UACC-62 melanoma | UO-31 renal | XF 498 CNS

COc1ccc(CCN2CCC(C#N)(c3ccc(OC)c(OC)c3)CC2)cc1OC
> 100 µM: 786-0 renal | A549 NSCLC | ACHN renal | CCRF-CEM leukemia | COLO 205 colon | DLD-1 colon | DMS 114 small cell lung | DMS 273 small cell lung | EKVX NSCLC | HCC-2998 colon | HCT-116 colon | HCT-15 colon | HL-60(TB) leukemia | HOP-18 NSCLC | HOP-62 NSCLC | HOP-92 NSCLC | HT29 colon | IGROV1 ovarian | K-562 leukemia | KM12 colon | KM20L2 colon | LOX IMVI melanoma | LXFL 529 NSCLC | M14 melanoma | M19-MEL melanoma | MALME-3M melanoma | MOLT-4 leukemia | NCI-H226 lung | NCI-H23 lung | NCI-H460 lung | NCI-H522 lung | OVCAR-3 ovarian | OVCAR-4 ovarian | OVCAR-5 ovarian | OVCAR-8 ovarian | RPMI-8226 leukemia | RXF 393 renal | SF-268 CNS | SF-295 CNS | SF-539 CNS | SK-MEL-2 melanoma | SK-MEL-28 melanoma | SK-MEL-5 melanoma | SK-OV-3 ovarian | SN12C renal | SNB-19 CNS | SNB-75 CNS | SR leukemia | SW-620 colon | TK-10 renal | U251 CNS | UACC-257 melanoma | UACC-62 melanoma | UO-31 renal | XF 498 CNS
